The target in experiment [1] is Histamine H1 receptor (Mus musculus) (UniProt P70174). The experiment can be described thus: Ex vivo effective binding dose against histamine-H1 receptor (n = 3).
Experiment [2] addresses T1, Adrenergic receptor alpha-1 (Rattus norvegicus, UniProt P15823+P23944+P43140).
T1 sequence (P15823 whole entry): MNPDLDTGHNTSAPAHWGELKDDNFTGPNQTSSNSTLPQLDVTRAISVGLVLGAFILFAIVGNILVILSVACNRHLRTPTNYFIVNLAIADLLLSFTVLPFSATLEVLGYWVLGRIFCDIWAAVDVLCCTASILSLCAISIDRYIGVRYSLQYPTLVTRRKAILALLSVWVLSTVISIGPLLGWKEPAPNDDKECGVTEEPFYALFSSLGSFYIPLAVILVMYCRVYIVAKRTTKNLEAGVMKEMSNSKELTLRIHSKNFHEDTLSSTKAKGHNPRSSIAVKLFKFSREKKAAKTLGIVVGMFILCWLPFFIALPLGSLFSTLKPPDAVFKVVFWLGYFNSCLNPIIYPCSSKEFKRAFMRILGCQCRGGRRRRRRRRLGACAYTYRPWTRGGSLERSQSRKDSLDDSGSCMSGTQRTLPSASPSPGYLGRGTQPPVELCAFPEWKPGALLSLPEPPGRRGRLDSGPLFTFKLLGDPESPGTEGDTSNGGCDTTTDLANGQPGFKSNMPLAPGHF
T1 sequence (P23944 whole entry): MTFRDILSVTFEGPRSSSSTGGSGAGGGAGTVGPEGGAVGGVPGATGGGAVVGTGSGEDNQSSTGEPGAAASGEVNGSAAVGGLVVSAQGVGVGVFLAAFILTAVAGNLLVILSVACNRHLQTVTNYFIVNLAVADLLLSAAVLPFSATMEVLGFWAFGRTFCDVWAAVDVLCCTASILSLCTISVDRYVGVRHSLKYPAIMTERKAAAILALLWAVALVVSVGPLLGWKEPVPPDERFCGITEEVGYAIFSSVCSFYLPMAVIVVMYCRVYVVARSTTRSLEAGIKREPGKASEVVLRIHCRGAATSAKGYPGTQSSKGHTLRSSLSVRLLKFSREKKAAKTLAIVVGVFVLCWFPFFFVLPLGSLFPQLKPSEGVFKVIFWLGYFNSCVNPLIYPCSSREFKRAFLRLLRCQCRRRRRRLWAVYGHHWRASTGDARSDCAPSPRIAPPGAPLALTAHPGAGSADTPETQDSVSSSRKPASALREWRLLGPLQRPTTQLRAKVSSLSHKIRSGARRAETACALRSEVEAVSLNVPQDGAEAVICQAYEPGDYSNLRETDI
T1 sequence (P43140 whole entry): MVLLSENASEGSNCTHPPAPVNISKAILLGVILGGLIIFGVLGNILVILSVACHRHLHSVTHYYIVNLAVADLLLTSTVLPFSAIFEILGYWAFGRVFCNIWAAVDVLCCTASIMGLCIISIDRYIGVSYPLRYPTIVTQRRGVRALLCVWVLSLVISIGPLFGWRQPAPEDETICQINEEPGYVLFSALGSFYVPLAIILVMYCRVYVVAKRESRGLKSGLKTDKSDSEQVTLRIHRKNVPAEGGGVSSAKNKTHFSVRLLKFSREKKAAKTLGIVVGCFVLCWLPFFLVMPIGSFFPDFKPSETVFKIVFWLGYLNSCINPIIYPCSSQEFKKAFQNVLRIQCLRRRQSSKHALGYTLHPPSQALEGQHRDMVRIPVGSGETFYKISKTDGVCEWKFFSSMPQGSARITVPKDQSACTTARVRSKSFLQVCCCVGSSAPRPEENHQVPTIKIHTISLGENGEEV
The experiment can be described thus: Binding affinity towards Alpha-1 adrenergic receptor in rat brain using [3H]prazosin as radioligand. The class given is tissue-based.

Experiment [3] is filed under the species Rattus norvegicus. The experiment can be described thus: Effective dose against Histamine-induced skin vascular permeability model in rat after 8 hr (n = 5). The format is functional.
The species entered for experiment [4] is Rattus norvegicus. The experiment can be described thus: Effective dose against Histamine-induced skin vascular permeability model in rat after 4 hr (n = 5). The format is functional.
The target of the next experiment is Histamine H1 receptor (Cavia porcellus, UniProt P31389). The experiment can be described thus: Inhibitory concentration against histamine-H1 receptor.
For experiment [5], the target named is Serotonin 2 (5-HT2) receptor (Homo sapiens, UniProt P41595+P28223+P28335). The experiment can be described thus: Inhibitory concentration against 5-hydroxytryptamine 2 receptor. The class given is protein assay.
Experiment [6] has as its system Rattus norvegicus. The experiment can be described thus: Inhibition of Histamine-induced skin vascular permeability model in rat after 4 hr at 1 mg/Kg (n = 5). The format is functional.

Broadly, the ED50 is the dose that gives a 50% effect, or the effect in half of the subjects. Lower therefore signals greater potency. One may read the IC50 as the concentration needed to halve the response being measured. A word on the inhibition in vivo: it is the change of the read-out against control, counted positive when it falls. High values mean a strong effect, low ones a weak effect.

Sequence of Histamine H1 receptor (P31389 whole entry): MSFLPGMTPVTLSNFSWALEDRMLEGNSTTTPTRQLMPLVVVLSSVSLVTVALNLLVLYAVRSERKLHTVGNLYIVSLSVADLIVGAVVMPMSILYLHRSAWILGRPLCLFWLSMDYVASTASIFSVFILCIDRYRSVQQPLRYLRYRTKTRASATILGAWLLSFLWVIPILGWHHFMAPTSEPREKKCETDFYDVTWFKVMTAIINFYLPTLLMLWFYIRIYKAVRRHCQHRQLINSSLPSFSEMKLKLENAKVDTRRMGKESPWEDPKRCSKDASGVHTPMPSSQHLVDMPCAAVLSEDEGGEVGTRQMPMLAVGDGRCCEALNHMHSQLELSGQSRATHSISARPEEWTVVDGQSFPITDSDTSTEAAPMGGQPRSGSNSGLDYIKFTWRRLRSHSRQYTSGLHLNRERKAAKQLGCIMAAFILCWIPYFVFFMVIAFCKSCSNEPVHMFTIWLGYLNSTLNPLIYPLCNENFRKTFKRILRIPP
Sequence of Histamine H1 receptor (Mus musculus) (P70174 whole entry, looked up): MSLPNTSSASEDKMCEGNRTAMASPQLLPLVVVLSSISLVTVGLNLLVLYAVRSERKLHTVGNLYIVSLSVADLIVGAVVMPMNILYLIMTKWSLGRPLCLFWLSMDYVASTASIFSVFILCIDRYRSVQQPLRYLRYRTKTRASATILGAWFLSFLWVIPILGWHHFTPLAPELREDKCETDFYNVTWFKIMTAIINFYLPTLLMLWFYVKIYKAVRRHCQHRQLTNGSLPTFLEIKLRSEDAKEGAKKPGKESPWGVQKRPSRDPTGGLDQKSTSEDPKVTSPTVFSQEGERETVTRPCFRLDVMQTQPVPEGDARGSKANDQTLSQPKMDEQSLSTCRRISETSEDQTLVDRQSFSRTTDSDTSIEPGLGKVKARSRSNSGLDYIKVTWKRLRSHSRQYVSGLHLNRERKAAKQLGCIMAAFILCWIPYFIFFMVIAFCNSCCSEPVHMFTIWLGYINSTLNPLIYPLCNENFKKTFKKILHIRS

Regarding `COc1ccc(CN2CCC(c3cn(Cc4ccc(Cl)s4)c4ccccc34)CC2)cc1C(=O)O`, the ED50 in experiment [1] worked out at 57 mg/kg; in the experiment filed under Rattus norvegicus [3] it was 0.7 mg/kg; in the experiment filed under Rattus norvegicus [4], 0.5 mg/kg. Moreover, the IC50 is more than 10000 nM in experiment [2], 365 nM on Histamine H1 receptor and 10000 nM in experiment [5].

For the compound `CCOCCn1cc(C2CCN(CCOc3ccccc3C(=O)O)CC2)c2ccccc21`, the ED50 in experiment [1] came to 34 mg/kg; in the experiment listed under Rattus norvegicus [3], 0.02 mg/kg; in the experiment filed under Rattus norvegicus [4], 0.08 mg/kg. For the same compound, the IC50 in experiment [2] was more than 10000 nM; at Histamine H1 receptor, 190 nM; in experiment [5], more than 10000 nM.

For `COc1ccc(CN2CCC(c3cn(Cc4ccoc4)c4ccccc34)CC2)cc1C(=O)O`, the ED50 in experiment [1] was found to be 15 mg/kg; in the experiment listed under Rattus norvegicus [3], 0.2 mg/kg; in the experiment listed under Rattus norvegicus [4], 0.2 mg/kg. For the same compound, the figures for the IC50 (in experiment [2]; at Histamine H1 receptor; in experiment [5]) were more than 10000 nM, 205 nM and 10000 nM, respectively.

Turning to `CCOCCn1cc(C2CCN(CCOc3ccccc3C=O)CC2)c2ccccc21`, the ED50 in experiment [1] amounted to 8 mg/kg; in the experiment filed under Rattus norvegicus [3], 0.22 mg/kg; in the experiment filed under Rattus norvegicus [4], 0.1 mg/kg. Further, the IC50 in experiment [2] turned out to be 10000 nM; at Histamine H1 receptor it was 86 nM; in experiment [5], 3272 nM.

With `O=C(O)c1cccc(CN2CCC(c3cn(Cc4ccc(Cl)s4)c4ccccc34)CC2)c1`, the IC50 in experiment [2] was more than 10000 nM; against Histamine H1 receptor, 330 nM; in experiment [5], more than 10000 nM. In the experiment with Rattus norvegicus [6], this compound returned an inhibition in vivo at 1 mg/kg of 7%.

As for `CCCCn1cc(C2CCN(Cc3ccc(OC)c(C(=O)O)c3)CC2)c2ccccc21`, the ED50 in experiment [1] was found to be 69 mg/kg; in the experiment listed under Rattus norvegicus [3], 0.13 mg/kg; in the experiment listed under Rattus norvegicus [4], 0.08 mg/kg. Also, the results for the IC50 (in experiment [2]; on Histamine H1 receptor; in experiment [5]) were more than 10000 nM, 475 nM and more than 10000 nM, respectively.

`CCOCCn1cc(C2CCN(Cc3cccc(C(=O)O)c3)CC2)c2ccccc21`: the figures for the ED50 (in experiment [1]; in the experiment listed under Rattus norvegicus [3]; in the experiment filed under Rattus norvegicus [4]) were 16 mg/kg, 0.45 mg/kg and 0.07 mg/kg, respectively. Further, the IC50 in experiment [2] is more than 10000 nM; at Histamine H1 receptor it was 403 nM; in experiment [5], 4950 nM.

For the compound `CCOCCn1cc(C2CCN(Cc3ccc(OC)c(C(=O)O)c3)CC2)c2ccccc21`, the ED50 is 5.4 mg/kg in experiment [1] and 0.05 mg/kg in the experiment filed under Rattus norvegicus [4]. In addition, the values for the IC50 (in experiment [2]; on Histamine H1 receptor; in experiment [5]) were more than 10000 nM, 690 nM and 10000 nM, respectively.

Turning to `CCCCn1cc(C2CCN(Cc3cccc(C(=O)O)c3)CC2)c2ccccc21`, the IC50 in experiment [2] was more than 10000 nM; against Histamine H1 receptor, 275 nM; in experiment [5], more than 10000 nM. The same compound returned an ED50 in the experiment listed under Rattus norvegicus [4] of 1 mg/kg.

In the case of `O=C(O)c1cccc(CN2CCC(c3cn(Cc4ccoc4)c4ccccc34)CC2)c1`, the IC50 was more than 10000 nM in experiment [2], 560 nM at Histamine H1 receptor and 10000 nM in experiment [5]. Besides, the 50% effect level in the experiment filed under Rattus norvegicus [4] (ED50) was put at a dose of 1 mg/kg.

Values taken from ChEMBL document CHEMBL1141896, “Synthesis and structure-activity relationships of piperidinylpyrrolopyridine derivatives as potent and selective H1 antagonists” (Bioorg Med Chem Lett, 2005).
